Here are results for 15 compounds from patent publication US9133262B2, “Somatostatin antagonists” (Ipsen Pharma S.A.S., priority 1996, dated 2015).

Positions of bridges follow the written chain, without caps; N, C: chain ends. Non-standard residues stand in square brackets, D forms with d. Residues, ends and D or L forms follow the SMILES beside them. Tyr(3-I) = N[C@@H](Cc1ccc(O)c(I)c1)C(=O)O; dBip = N[C@H](Cc1ccc(-c2ccccc2)cc1)C(=O)O; Phe(4-Cl) = N[C@@H](Cc1ccc(Cl)cc1)C(=O)O; dPhe(4-Cl) = N[C@H](Cc1ccc(Cl)cc1)C(=O)O; Dip = N[C@H](C(=O)O)C(c1ccccc1)c1ccccc1; Phe(4-F) = N[C@@H](Cc1ccc(F)cc1)C(=O)O; dPhe(4-F) = N[C@H](Cc1ccc(F)cc1)C(=O)O; 2Nal = N[C@@H](Cc1ccc2ccccc2c1)C(=O)O; d2Nal = N[C@H](Cc1ccc2ccccc2c1)C(=O)O; 3Pal = N[C@@H](Cc1cccnc1)C(=O)O; Tle = CC(C)(C)[C@H](N)C(=O)O; Nle = CCCC[C@H](N)C(=O)O

In the first experiment the test system is rat pituitary cells. It is filed as cell-based. Particulars: 3 h. The source says:
Bioassay on the In Vitro Release of Growth Hormone
(a) Rat Pituitary Cell Dispersion
Pituitaries from adult Charles River CD male rats (Wilmington, Mass.) housed under controlled conditions were dispersed and cultured using aseptic technique by modification of previously described methods (Hoefer, M. T., et al., Mol. Cell. Endocrinol. 35:229 (1984); Ben-Jonathan, N., et al., Methods Enzymol. 103:249 (1983); and Heiman, M. L., et al., Endocrinology 116:410 (1985)). Pituitaries were removed from sacrificed rats, sectioned, and then placed into a siliconized, liquid scintillation vial containing 2 ml 0.2% trypsin (Worthington Biochemicals, Freehold, N.J.) in sterile-filtered Krebs-Ringer bicarbonate buffer supplemented with 1% bovine serum albumin, 14 mM glucose, modified Eagle medium (MEM) vitamin solution, and MEM amino acids (Gibco Laboratories, Grand Island, N.Y.) (KRBGA). All glassware was siliconized as described by Sayers, et al., Endocrinology 88:1063 (1971). The fragments were incubated in a water bath for 35 min at 37° C. with agitation. The vial contents then were poured into a scintillation vial containing 2 ml 0.1% DNase (Sigma Chemical Co., St. Louis, Mo.) in KRBGA and incubated for 2 min at 37° C. with agitation. After incubation, the tissue was decanted into a 15 ml centrifuge tube and allowed to settle. Medium was discarded, and pituitary sections were washed 3 times with 1 ml fresh-KRBGA. The cells were then dispersed in 2 ml 0.05% LBI (lima bean trypsin inhibitor, Worthington Biochemicals) by gently drawing the fragments into and expelling them out of a siliconized, fire polished Pasteur pipette. Dispersed cells were then filtered through a 630 μm diameter Nylon mesh (Tetko, Elmsford, N.Y.) into a fresh 15 ml centrifuge tube. An additional 2 ml of 0.05% LBI solution was used to rinse the first tube and was transferred to the second tube with filtering.
The dispersed cells were then further diluted with approximately 15 ml sterile-filtered Dulbecco's modified Eagle medium (GIBCO), which was supplemented with 2.5% fetal calf serum (GIBCO), 3% horse serum (GIBCO), 10% fresh rat serum (stored on ice for no longer than 1 hr) from the pituitary donors, 1% MEM non-essential amino acids (GIBCO), and gentamycin (10 ng/ml; Sigma) and nystatin (10,000 U/ml; GIBCO). The cells were poured into a 50 ml round-bottomed glass extraction flask with a large diameter opening and then randomly plated at a density of approximately 200,000 cells per well (Co-star cluster 24; Rochester Scientific Co., Rochester, N.Y.). The plated cells were maintained in the above Dulbecco's medium in a humidified atmosphere of 95% air and 5% CO2 at 37° C. for 4-5 days.
(c) Experimental Incubation and IC50 Determination
In preparation for a hormone challenge, the cells were washed 3 times with medium 199 (GIBCO) to remove old medium and floating cells. Each treatment well contained a total volume of 1 ml medium 199 containing 1% BSA (fraction V; Sigma) with treatments as described below. Each antagonist candidate was tested using a single 24-well cell culture plate. Each treatment was performed in triplicate. Each plate contained 8 treatment groups: one 1 nM growth hormone releasing factor (GRF) (1-29)NH2-stimulated control group; one 1 nM somatostatin-inhibited control group in the presence of 1 nM GRF(1-29)NH2; and 6 doses of a given antagonist in the presence of both 1 nM SRIF and 1 nM GRF per plate. After 3 hrs at 37° C. in a air/carbon dioxide atmosphere (95/5%), the medium was removed and stored at −20° C. until radioimmunoassayed for growth hormone content. IC50's of each antagonist versus 1 nM SRIF were calculated using a computer program (SigmaPlot, Jandel Scientific, San Rafael, Calif.) with the maximum response constrained to the value of the 1 nM GRF(1-29)NH2-stimulated control.
Compound `CC(C)[C@@H]1NC(=O)[C@H](CCCCN)NC(=O)[C@@H](Cc2c[nH]c3ccccc23)NC(=O)[C@H](Cc2ccc(O)cc2)NC(=O)[C@H](NC(=O)[C@H](N)Cc2ccc(-c3ccccc3)cc2)CSSC[C@@H](C(=O)N[C@@H](Cc2ccc3ccccc3c2)C(N)=O)NC1=O` [Analog No. 37, H2-D-Bip-D-Cys-Tyr-D-Trp-Lys-Val-Cys-β-Nal-NH2] (H-[dBip][dC]Y[dW]KVC[2Nal]-NH2; disulfide 2-7) gave an IC50 of 780 nM.

As to `CC(C)[C@H](NC(=O)[C@H](CCCCN)NC(=O)[C@@H](Cc1c[nH]c2ccccc12)NC(=O)[C@H](Cc1ccc(O)cc1)NC(=O)[C@@H](Cc1ccc(Cl)cc1)NC(=O)[C@@H](N)Cc1ccc2ccccc2c1)C(=O)N[C@@H](Cc1ccccc1)C(=O)N[C@@H](Cc1ccc2ccccc2c1)C(N)=O` [Analog No. 23, H2-β-Nal-D-Cpa-Tyr-D-Trp-Lys-Val-Phe-β-Nal-NH2] (H-[2Nal][dPhe(4-Cl)]Y[dW]KVF[2Nal]-NH2), the half-maximal inhibitory concentration (IC50) turned out to be 910 nM. Same read-out and setting: under `CC(C)[C@H](NC(=O)[C@H](CCCCN)NC(=O)[C@@H](Cc1c[nH]c2ccccc12)NC(=O)[C@H](Cc1ccc(O)cc1)NC(=O)[C@@H](Cc1ccc(Cl)cc1)NC(=O)[C@H](N)Cc1ccc2ccccc2c1)C(=O)N[C@@H](Cc1ccccc1)C(=O)N[C@H](C(N)=O)[C@@H](C)O` [Analog No. 8, H2-D-β-Nal-D-Cpa-Tyr-D-Trp-Lys-Val-Phe-Thr-NH2] (H-[d2Nal][dPhe(4-Cl)]Y[dW]KVFT-NH2) stands 3960 nM; under `CC(C)(C)[C@@H]1NC(=O)[C@H](CCCCN)NC(=O)[C@@H](Cc2c[nH]c3ccccc23)NC(=O)[C@H](Cc2cccnc2)NC(=O)[C@H](NC(=O)[C@@H](N)Cc2ccc(Cl)cc2)CSSC[C@@H](C(=O)N[C@@H](Cc2ccc(Cl)cc2)C(N)=O)NC1=O` [Analog No. 57, H2-p-Cl-Phe-D-Cys-Pal-D-Trp-Lys-Tle-Cys-p-Cl-Phe-NH2] (H-[Phe(4-Cl)][dC][3Pal][dW]K[Tle]C[Phe(4-Cl)]-NH2; disulfide 2-7), 5.9 nM. Still for that read-out and setting: under `CC(C)[C@@H]1NC(=O)[C@H](CCCCN)NC(=O)[C@@H](Cc2c[nH]c3ccccc23)NC(=O)[C@H](Cc2cccnc2)NC(=O)[C@H](NC(=O)[C@@H](N)Cc2ccc(F)cc2)CSSC[C@@H](C(=O)N[C@@H](Cc2ccc3ccccc3c2)C(N)=O)NC1=O` [Analog No. 30, H2-p-F-Phe-D-Cys-Pal-D-Trp-Lys-Val-Cys-β-Nal-NH2] (H-[Phe(4-F)][dC][3Pal][dW]KVC[2Nal]-NH2; disulfide 2-7) stands 6.5 nM.

The compound `CC(C)[C@@H]1NC(=O)[C@H](CCCCN)NC(=O)[C@@H](Cc2c[nH]c3ccccc23)NC(=O)[C@H](Cc2cccnc2)NC(=O)[C@H](NC(=O)[C@@H](N)Cc2ccc3ccccc3c2)CSSC[C@@H](C(=O)N[C@H](Cc2ccc(F)cc2)C(N)=O)NC1=O` [Analog No. 28, H2-β-Nal-D-Cys-Pal-D-Trp-Lys-Val-Cys-D-p-F-Phe-NH2] (H-[2Nal][dC][3Pal][dW]KVC[dPhe(4-F)]-NH2; disulfide 2-7) returned an IC50 of 100 nM.

Compound `CC(C)[C@@H]1NC(=O)[C@H](CCCCN)NC(=O)[C@@H](Cc2c[nH]c3ccccc23)NC(=O)[C@H](Cc2cccnc2)NC(=O)[C@H](NC(=O)[C@H](N)Cc2ccc(F)cc2)CSSC[C@@H](C(=O)N[C@H](Cc2ccc(F)cc2)C(N)=O)NC1=O` [Analog No. 27, H2-D-p-F-Phe-D-Cys-Pal-D-Trp-Lys-Val-Cys-D-p-F-Phe-NH2] (H-[dPhe(4-F)][dC][3Pal][dW]KVC[dPhe(4-F)]-NH2; disulfide 2-7) returned an IC50 of 41 nM. The same measure, in the same setting: under `CCCC[C@@H]1NC(=O)[C@H](CCCCN)NC(=O)[C@@H](Cc2c[nH]c3ccccc23)NC(=O)[C@H](Cc2cccnc2)NC(=O)[C@H](NC(=O)[C@@H](N)Cc2ccc3ccccc3c2)CSSC[C@@H](C(=O)N[C@@H](Cc2ccc3ccccc3c2)C(N)=O)NC1=O` [Analog No. 31, H2-β-Nal-D-Cys-Pal-D-Trp-Lys-Nle-Cys-β-Nal-NH2] (H-[2Nal][dC][3Pal][dW]K[Nle]C[2Nal]-NH2; disulfide 2-7) stands 3.8 nM. The same measure, in the same setting: under `CC(=O)N[C@@H](Cc1ccc2ccccc2c1)C(=O)N[C@@H]1CSSC[C@@H](C(=O)N[C@@H](Cc2ccc3ccccc3c2)C(N)=O)NC(=O)[C@H](C(C)C)NC(=O)[C@H](CCCCN)NC(=O)[C@@H](Cc2c[nH]c3ccccc23)NC(=O)[C@H](Cc2ccc(O)cc2)NC1=O` [Analog No. 5, (H)(CH3CO)-β-Nal-D-Cys-Tyr-D-Trp-Lys-Val-Cys-β-Nal-NH2] (Ac-[2Nal][dC]Y[dW]KVC[2Nal]-NH2; disulfide 2-7) stands 60 nM; under `CC(C)[C@@H]1NC(=O)[C@H](CCCCN)NC(=O)[C@@H](Cc2c[nH]c3ccccc23)NC(=O)[C@H](Cc2cccnc2)NC(=O)[C@H](NC(=O)[C@@H](N)C(c2ccccc2)c2ccccc2)CSSC[C@@H](C(=O)N[C@@H](Cc2ccc3ccccc3c2)C(N)=O)NC1=O` [Analog No. 13, H2-Dip-D-Cys-Pal-D-Trp-Lys-Val-Cys-β-Nal-NH2] (H-[Dip][dC][3Pal][dW]KVC[2Nal]-NH2; disulfide 2-7), 110 nM; under `CC(C)[C@@H]1NC(=O)[C@H](CCCCN)NC(=O)[C@@H](Cc2c[nH]c3ccccc23)NC(=O)[C@H](Cc2c[nH]cn2)NC(=O)[C@H](NC(=O)[C@@H](N)C(c2ccccc2)c2ccccc2)CSSC[C@@H](C(=O)N[C@@H](Cc2ccc3ccccc3c2)C(N)=O)NC1=O` [Analog No. 20, H2-Dip-D-Cys-His-D-Trp-Lys-Val-Cys-β-Nal-NH2] (H-[Dip][dC]H[dW]KVC[2Nal]-NH2; disulfide 2-7), 120 nM.

Consider `CC(C)[C@@H]1NC(=O)[C@H](CCCCN)NC(=O)[C@@H](Cc2c[nH]c3ccccc23)NC(=O)[C@H](Cc2cccnc2)NC(=O)[C@H](NC(=O)[C@@H](N)Cc2ccc3ccccc3c2)CSSC[C@@H](C(=O)N[C@H](C(N)=O)C(c2ccccc2)c2ccccc2)NC1=O` [Analog No. 42, H2-β-Nal-D-Cys-Pal-D-Trp-Lys-Val-Cys-Dip-NH2] (H-[2Nal][dC][3Pal][dW]KVC[Dip]-NH2; disulfide 2-7), for which the IC50 turned out to be 44 nM. Same read-out and setting: under `CC(C)[C@@H]1NC(=O)[C@H](CCCCN)NC(=O)[C@@H](Cc2c[nH]c3ccccc23)NC(=O)[C@H](Cc2ccc(O)c(I)c2)NC(=O)[C@H](NC(=O)[C@@H](N)Cc2ccc3ccccc3c2)CSSC[C@@H](C(=O)N[C@@H](Cc2ccc3ccccc3c2)C(N)=O)NC1=O` [Analog No. 46, H2-β-Nal-D-Cys-3-I-Tyr-D-Trp-Lys-Val-Cys-β-Nal-NH2] (H-[2Nal][dC][Tyr(3-I)][dW]KVC[2Nal]-NH2; disulfide 2-7) stands 20 nM.

The experiment is the same for the next values; noted with them: cultured rat pituitary cells; 1 nM SRIF and 1 nM GRF(1-29)NH2; 3 hrs at 37° C.; growth hormone by radioimmunoassay; read-out: IC50 of antagonist versus 1 nM SRIF (growth hormone release).
Regarding `CC(C)[C@@H]1NC(=O)[C@H](CCCCN)NC(=O)[C@@H](Cc2c[nH]c3ccccc23)NC(=O)[C@H](Cc2ccc(O)cc2)NC(=O)[C@H](NC(=O)[C@H](N)Cc2ccc3ccccc3c2)CSSC[C@@H](C(=O)N[C@@H](Cc2ccc3ccccc3c2)C(N)=O)NC1=O` [Analog No. 9, H2-D-β-Nal-D-Cys-Tyr-D-Trp-Lys-Val-Cys-β-Nal-NH2] (H-[d2Nal][dC]Y[dW]KVC[2Nal]-NH2; disulfide 2-7), the IC50 came to 1360 nM. Regarding `CC(C)[C@@H]1NC(=O)[C@H](CCCCN)NC(=O)[C@@H](Cc2c[nH]c3ccccc23)NC(=O)[C@H](Cc2ccc(O)cc2)NC(=O)[C@H](NC(=O)[C@@H](N)Cc2ccc3ccccc3c2)CSSC[C@@H](C(=O)N[C@H](Cc2ccc3ccccc3c2)C(N)=O)NC1=O` [Analog No. 25, H2-β-Nal-D-Cys-Tyr-D-Trp-Lys-Val-Cys-D-β-Nal-NH2] (H-[2Nal][dC]Y[dW]KVC[d2Nal]-NH2; disulfide 2-7), the IC50 came out at 280 nM.
